In ChEMBL document CHEMBL1201862, “PubChem BioAssay data set” (2004):
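96-well plates; 48 h exposure; 5 concentrations. Endpoints by linear interpolation between flanking doses. Not reached: highest tested concentration assigned. GI50: concentration for 50% inhibition of growth.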 Calls of active or inactive are those of the source. No stated cut-off is given here; in the data, active = GI50 up to about 1.1 µM and inactive = higher.

Tests used:
Assay in all cases: NCI anticancer screen, dose series, 48 h
786-0 = test system: 786-0
A498 = test system: A498
ACHN = test system: ACHN
BT-549 = test system: BT-549
CCRF-CEM = test system: CCRF-CEM
DMS-114 = test system: DMS-114
DU-145 = test system: DU-145
EKVX = test system: EKVX
HCT-15 = test system: HCT-15
Hs-578T = test system: Hs-578T
LOX IMVI = test system: LOX IMVI
MDA-MB-231 = test system: MDA-MB-231
NCI/ADR-RES = test system: NCI/ADR-RES
OVCAR-4 = test system: OVCAR-4
RXF 393 = test system: RXF 393
SK-MEL-28 = test system: SK-MEL-28
T47D = test system: T47D
TK-10 = test system: TK-10
UACC-257 = test system: UACC-257
UACC-62 = test system: UACC-62

Row | SMILES | GI50 (786-0) | GI50 (A498) | GI50 (ACHN) | GI50 (BT-549) | GI50 (CCRF-CEM) | GI50 (DMS-114) | GI50 (DU-145) | GI50 (EKVX) | GI50 (HCT-15) [µM] | GI50 (Hs-578T) | GI50 (LOX IMVI) | GI50 (MDA-MB-231) | GI50 (NCI/ADR-RES) | GI50 (OVCAR-4) | GI50 (RXF 393) | GI50 (SK-MEL-28) | GI50 (T47D) | GI50 (TK-10) | GI50 (UACC-257) | GI50 (UACC-62)
1 | CS(=O)(=O)OCCCCOS(C)(=O)=O [BUSULFAN] | 228 µM (inactive) | 233 µM (inactive) | 172 µM (inactive) | > 1000 µM (inactive) | 145 µM (inactive) | 225 µM (inactive) | 220 µM (inactive) | > 201 µM (inactive) | 219 | > 250 µM (inactive) | 221 µM (inactive) | > 1000 µM (inactive) | 217 µM (inactive) | 214 µM (inactive) | 182 µM (inactive) | 203 µM (inactive) | > 250 µM (inactive) | > 250 µM (inactive) | 183 µM (inactive) | 187 µM (inactive)
2 | COc1ccc2c(c1)[C@@H](NC(C)=O)CCc1cc(OC)c(OC)c(OC)c1-2 | 0.019 µM (active) | 0.0143 µM (active) | 0.0179 µM (active) | 1.85 µM (inactive) | 0.0398 µM (active) | 0.0118 µM (active) | 0.0185 µM (active) | 8.34 µM (inactive) | 0.015 | 0.0169 µM (active) | 0.018 µM (active) | 0.0228 µM (active) | 0.0198 µM (active) | 9.84 µM (inactive) | 0.0151 µM (active) | < 0.017 µM (active) | > 100 µM (inactive) | 2.54 µM (inactive) | 0.108 µM (active) | 0.0154 µM (active)
